In brackets after ≈: the same amount, converted by molar mass. Read-outs that look alike come from different tables or passages of the source.
Experiments:
[1] = tested on: Mycobacterium bovis BCG (1173P2); assay: microbe, parasite or virus in culture; assay type: cell-based; details: for MIC: Mycobacterium tuberculosis variant bovis BCG, BCG
[2] = Cytotoxicity assay, MTT method; assay type: cell-based; details: mouse, L929 fibroblast cells, Fibroblast L929 cell line
Procedure: (§1) The synthesized derivatives were assayed for their toxicity on Fibroblast L929 cell line by MTT [[…]] method. The cells were grown in RPMI1640 medium at 37 °C under 5% CO2 supplemented with 10% heat inactivated fetal bovine serum (FBS), 100 U/mL penicillin and 100 µg/mL streptomycin. Then, the cells were seeded into 96-well plates at a concentration of 6000 cells/well and allowed to incubate for 24 h. The medium was then discarded and different concentrations of test compounds in complete medium were added to each well. […] The produced formazan crystals were dissolved in 100 µL of DMSO. Plates were incubated for 20 min at 37 °C and the optical densities were read at 570 nm with a reference wavelength of 630 nm as background using a spectrophotometer plate reader (Infinite® M200, TECAN). Doxorubicin and cisplatin were used as positive controls and DMSO as the solvent of the test compounds and its final concentration was less than 0.2%. IC50 was calculated by GraphPad Prism 5.04 software. All the tests were performed in triplicates.

[3] = tested on: Fibroblast L929 cell line; assay: Cytotoxicity assay, MTT method; assay type: cell-based; details: 48 h
Procedure: as §1

[4] = 24 h, read-out: Antimycobacterial activity MIC
[5] = 48 h, read-out: Antimycobacterial activity MIC
[6] = Mycobacterium bovis BCG, read at 24 h after Alamar blue
[7] = Mycobacterium bovis BCG, read at 48 h after Alamar blue
[8] = Mycobacterium bovis BCG, reading time not given

Compound	MIC [1, 4]	MIC [1, 5]	IC50 at 48 h [2]	melting point	further results
S=c1[nH]ncn1N=Cc1ccccn1 [IIIa, 4-(pyridin-2-ylmethyleneamino)-1,2,4-triazole-5-thione]	62.5 µg/mL (≈ 305 µM)	125 µg/mL (≈ 609 µM)	> 100 µg/mL	–	MIC ([1]; read-out: MIC value): 62.5 µg/mL (≈ 305 µM)
S=c1[nH]ncn1/N=C/C=C/c1ccccc1 [IIIe, 4-((E)-3-phenylallylideneamino)-1,2,4-triazole-5-thione]	62.5 µg/mL (≈ 271 µM)	62.5 µg/mL (≈ 271 µM)	42.6 µg/mL (≈ 185 µM)	–	MIC ([1]; read-out: MIC value): 62.5 µg/mL (≈ 271 µM)
S=c1[nH]ncn1N=Cc1ccncc1 [IIIc, 4-(pyridin-4-ylmethyleneamino)-1,2,4-triazole-5-thione]	93.8 µg/mL (≈ 457 µM)	125 µg/mL (≈ 609 µM)	> 100 µg/mL	255 to 256 °C	–
Nn1c(Cc2cccs2)n[nH]c1=S [If, 4-amino-3-(thiophen-2-ylmethyl)-1,2,4-triazole-5-thione]	62.5 µg/mL (≈ 294 µM)	62.5 µg/mL (≈ 294 µM)	> 100 µg/mL	154 to 157 °C	–
Nn1c(Cc2c[nH]c3ccccc23)n[nH]c1=S [Id, 4-amino-3-(indol-3-ylmethyl)-1,2,4-triazole-5-thione]	62.5 µg/mL (≈ 255 µM)	62.5 µg/mL (≈ 255 µM)	> 100 µg/mL	172 to 175 °C	–
Nn1c(C(O)c2ccccc2)n[nH]c1=S (centres unmarked) [Ie, 4-amino-3-(hydroxy(phenyl)methyl)-1,2,4-triazole-5-thione]	62.5 µg/mL (≈ 281 µM)	62.5 µg/mL (≈ 281 µM)	> 100 µg/mL	167 to 170 °C	–
S=c1[nH]ncn1N=Cc1cccnc1 [IIIb, 4-(pyridin-3-ylmethyleneamino)-1,2,4-triazole-5-thione]	125 µg/mL (≈ 609 µM)	125 µg/mL (≈ 609 µM)	> 100 µg/mL	157 °C (dec.)	–
Nn1cnnc1S [Ia, 4-amino-1,2,4-triazole-5-thione]	62.5 µg/mL (≈ 538 µM)	62.5 µg/mL (≈ 538 µM)	> 100 µg/mL	–	–
C[S+](C)[O-] [DMSO]	–	–	–	–	Antimycobacterial activity MIC ([1]; Mycobacterium bovis BCG, 24 h, negative control DMSO): 6.5/6.5 % v/v; Antimycobacterial activity MIC ([1]; Mycobacterium bovis BCG, 48 h, negative control DMSO): 6.5/6.5 % v/v
CC(=O)Nc1ccc(C=Nn2cn[nH]c2=S)cc1 [IIId, 4-(4-acetamidobenzyldeneamino)-1,2,4-triazole-5-thione]	–	–	–	–	Antimycobacterial activity MIC [1, 6]: 125/125 µg/mL; Antimycobacterial activity MIC [1, 7]: 125/125 µg/mL; Cytotoxicity IC50 [3]: >100 µg/mL
Cc1n[nH]c(=S)n1N [Ib]	–	–	–	–	IC50 value [1, 8]: 31.25 µg/mL (≈ 240 µM); MIC value [1, 8]: 31.25 µg/mL (≈ 240 µM); Antimycobacterial activity MIC [1, 6]: 31.25/31.25 µg/mL; Antimycobacterial activity MIC [1, 7]: 31.25/31.25 µg/mL; Cytotoxicity IC50 [3]: >100 µg/mL
S=c1[nH]nc2n1N=C(c1ccccc1)CC2 [IIa, 6-phenyl-7,8-dihydro-[1,2,4]triazolo[4,3-b]pyridazine-3-thione]	62.5 µg/mL (≈ 271 µM)	62.5 µg/mL (≈ 271 µM)	> 100 µg/mL	253 °C (dec.)	MIC ([1]; read-out: MIC value): 62.5 µg/mL (≈ 271 µM)
CC[C@@H](CO)NCCN[C@@H](CC)CO [Ethambutol, reference compound]	0.75 µg/mL (≈ 3.67 µM)	0.75 µg/mL (≈ 3.67 µM)	–	–	–
S=c1[nH]nc2n1N=C(c1ccc(Cl)cc1)CC2 [IIb, 6-(4-chlorophenyl)-7,8-dihydro-[1,2,4]triazolo[4,3-b]pyridazine-3-thione]	> 500 µg/mL	> 500 µg/mL	> 100 µg/mL	256 °C (dec.)	antimycobacterial activity (in words) ([1]; Mycobacterium bovis BCG): inactive
CCc1n[nH]c(=S)n1N [Ic]	–	–	–	–	Antimycobacterial activity MIC [1, 6]: 62.5/62.5 µg/mL; Antimycobacterial activity MIC [1, 7]: 62.5/62.5 µg/mL; Cytotoxicity IC50 [3]: >100 µg/mL

Reference: article PMC4499427 (Iranian Journal of Pharmaceutical Research : IJPR, 2015)
